How the values were obtained:
[1] = tested on: bovine dendritic cells (DC); assay: IL-12 induction in in vitro bovine dendritic cell (DC) assay, IL-12 ELISA; format: cell-based; conditions: 50 μg of each compound; supernatants collected 48 hours after stimulation
Description: Peripheral blood mononuclear cells (PBMCs) were isolated from heparinized blood of cattle by density-gradient centrifugation. Cells were adjusted to 10^7/ml in RPMI-1640 medium containing 10% heat-inactivated FCS, 10 mM HEPES, 5×10^−5 M 2-mercaptoethanol. Non-adherent cells were removed after 3 hours by washing with warm phosphate buffered saline (PBS). Adherent cells were then incubated in complete medium with 0.2 U/mI of recombinant bovine GM-CSF and 200 U/ml of recombinant bovine IL-4 (Both from Serotec, Oxford, UK), replenished daily. After 3-4 days, fresh media and cytokines were added to cells. Cells were harvested after 7-10 days of culture, washed three times and adjusted to desired cell numbers. […]
(§1) Plates (Maxisorp, Nunc, Denmark) were coated with 8 μg/ml anti-IL-12 (B @ D Pharmaceuticals) and incubated overnight at room temperature. […] Following the final washing step, TMB substrate was added, the reaction was stopped by the addition of H2SO4, and the absorbance values were read at 450 nm.
Th1 inducing activities of compounds 1.9 and 2.5 were tested in an in vitro bovine dendritic cell (DC) assay (FIG. 1). […] Supernatants were collected 48 hours after stimulation, and IL-12 levels measured.

[2] = tested on: mouse dendritic cells (DC); assay: IL-12 induction in in vitro mouse dendritic cell (DC) assay, IL-12 ELISA; format: cell-based; conditions: 50 μg of each compound; supernatants collected 48 hours after stimulation
Description: Bone marrow contents of C57BU6 mice were obtained from the femurs, by flushing the inside of the bones with media (see below). Cells were then incubated in complete medium with 0.2 U/mI of recombinant GM-CSF and 200 U/ml of recombinant IL-4 (Both from Serotec, Oxford, UK), replenished daily. After 3-4 days, fresh media and cytokines were added to cells. Cells were harvested after 7-10 days of culture, washed three times and adjusted to desired cell numbers. When harvested, cells were more than 95% DCs based on the following: DCs lacked B and T cells markers had high expression of MHC class 2 and class 1 (Serotec), and had low expression of CD11a (Serotec) and CD14 (Serotec), and expressed CD11c (Serotec). […]
as §1
IL-10 and IL-12 inducing activities of compounds 1.9, 2.5, 3.5, 4,6, 5.3, 6.2, 7.10, 8.6, 9.2, and 10.3 were tested in an in vitro mouse dendritic cell (DC) assay (FIG. 2). […] Supernatants were collected 48 hours after stimulation, and IL-12 and IL-10 levels measured.

| Structure (SMILES) | Induction of IL-12 on bovine dendritic cells [1] | Induction of IL-12 on mouse dendritic cells [2] |
| --- | --- | --- |
| CCCCCCCCCCCCCCCCO[C@H](COC(=O)CCCCCCCCCCCCCCC)COP(=O)(O)O[C@@H]1C(O[C@H]2OC(CO)[C@@H](O)[C@H](O)C2O)C(O)[C@@H](O)[C@H](O)C1O[C@H]1OC(CO)[C@@H](O)C(O)[C@H]1O (stereo partly drawn) [Compound 1.9, 2,6-(Di-O-α-D-mannopyranosyl)-1-O-(1-O-hexadecanoyl-2-O-hexadecyl-sn-glycero-3-phosphoryl)-D-myo-inositol] | very high levels of IL-12 | the most potent inducing more IL-12 than the positive controls MPL and PAMCSK |
| CCCCCCCCCCCCCCCCOC[C@H](COP(=O)(O)O[C@@H]1C(O[C@H]2OC(CO)[C@@H](O)[C@H](O)C2O)C(O)[C@@H](O)[C@H](O)C1O[C@H]1OC(CO)[C@@H](O)C(O)[C@H]1O)OC(=O)CCCCCCCCCCCCCCC (stereo partly drawn) [Compound 4.6, 2,6-(Di-O-α-D-mannopyranosyl)-1-O-(2-hexadecanoyl-1-O-hexadecyl-sn-glycero-3-phosphoryl)-D-myo-inositol] |  | the most potent inducing more IL-12 than the positive controls MPL and PAMCSK |

Source: patent US20100297156A1, “ANALOGUES OF PHOSPHATIDYLINOSITOL MANNOSIDES” (INDUSTRIAL RESEARCH LIMITED, priority 2006, published 2010)
